# Source: ChEMBL document CHEMBL1127175, “4-hydroxyphenoxymethylene bisphosphonic acid derivatives: potent, non-hydrolysable inhibitors of MYO-inositol monophosphatase” (Bioorg Med Chem Lett, 1993)
# Target: T1, Inositol monophosphatase 1 (Bos taurus, UniProt P20456)
# T1 sequence (P20456 whole entry): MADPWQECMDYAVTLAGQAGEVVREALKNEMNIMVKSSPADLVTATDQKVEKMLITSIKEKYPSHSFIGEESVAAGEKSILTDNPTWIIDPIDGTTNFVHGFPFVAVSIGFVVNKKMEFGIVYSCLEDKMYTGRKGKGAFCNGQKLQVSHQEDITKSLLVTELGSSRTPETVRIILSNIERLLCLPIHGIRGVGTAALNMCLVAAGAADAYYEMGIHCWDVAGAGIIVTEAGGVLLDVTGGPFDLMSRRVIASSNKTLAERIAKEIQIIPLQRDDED
# Assay: Tested for the inhibitory activity against recombinant bovine brain myo-inositol monophosphatase
row,Compound,IC50 [µM]
1,O=P(O)(O)C(Cc1ccccc1)(Oc1ccc(O)cc1)P(=O)(O)O,0.5
2,CC(Oc1ccc(O)cc1)(P(=O)(O)O)P(=O)(O)O [L-690330],0.33
3,O=C(NCc1cccc(CC(Oc2ccc(O)cc2)(P(=O)(O)O)P(=O)(O)O)c1)c1ccc(Cl)c(Cl)c1,0.08
4,O=P(O)(O)C(O)(Cc1ccc(Cl)c(Cl)c1)P(=O)(O)O,23
5,CC(O[C@@H]1CC[C@@H](O)C[C@@H]1O)(P(=O)(O)O)P(=O)(O)O,4
6,O=P(O)(O)C(CCCCCCc1ccccc1)(O[C@@H]1CC[C@@H](O)C[C@@H]1O)P(=O)(O)O,2.5
7,O=P(O)(O)C(Oc1ccc(O)cc1O)P(=O)(O)O,40.8
8,O=P(O)(O)C(Cc1ccccc1)(O[C@@H]1CC[C@@H](O)C[C@@H]1O)P(=O)(O)O,19.2
9,O=P(O)(O)C(Oc1ccc(O)cc1)P(=O)(O)O,27
10,CC(Oc1ccc(O)cc1O)(P(=O)(O)O)P(=O)(O)O,4.4
